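48-hour exposure; five concentrations; linearly interpolated endpoints. TGI: total growth inhibition.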
Assays:
Test in all cases: inhibition of tumour cell growth, NCI panel, 48 h
786-0 renal = system: 786-0 renal
A498 renal = system: A498 renal
A549 NSCLC = system: A549 NSCLC
ACHN renal = system: ACHN renal
CAKI-1 renal = system: CAKI-1 renal
CCRF-CEM leukemia = system: CCRF-CEM leukemia
COLO 205 colon = system: COLO 205 colon
EKVX NSCLC = system: EKVX NSCLC
HCC-2998 colon = system: HCC-2998 colon
HCT-116 colon = system: HCT-116 colon
HCT-15 colon = system: HCT-15 colon
HL-60(TB) leukemia = system: HL-60(TB) leukemia
HOP-62 NSCLC = system: HOP-62 NSCLC
HS 578T breast = system: HS 578T breast
HT29 colon = system: HT29 colon
IGROV1 ovarian = system: IGROV1 ovarian
K-562 leukemia = system: K-562 leukemia
KM12 colon = system: KM12 colon
M14 melanoma = system: M14 melanoma
MALME-3M melanoma = system: MALME-3M melanoma
MCF7 breast = system: MCF7 breast
MDA-MB-231 breast = system: MDA-MB-231 breast
MDA-MB-435 = system: MDA-MB-435
MDA-N = system: MDA-N
MOLT-4 leukemia = system: MOLT-4 leukemia
NCI-H226 lung = system: NCI-H226 lung
NCI-H23 lung = system: NCI-H23 lung
NCI-H460 lung = system: NCI-H460 lung
NCI/ADR-RES ovarian = system: NCI/ADR-RES ovarian
OVCAR-4 ovarian = system: OVCAR-4 ovarian
OVCAR-8 ovarian = system: OVCAR-8 ovarian
PC-3 prostate = system: PC-3 prostate
RPMI-8226 leukemia = system: RPMI-8226 leukemia
SF-268 CNS = system: SF-268 CNS
SF-295 CNS = system: SF-295 CNS
SF-539 CNS = system: SF-539 CNS
SK-MEL-2 melanoma = system: SK-MEL-2 melanoma
SK-MEL-28 melanoma = system: SK-MEL-28 melanoma
SK-MEL-5 melanoma = system: SK-MEL-5 melanoma
SK-OV-3 ovarian = system: SK-OV-3 ovarian
SN12C renal = system: SN12C renal
SNB-19 CNS = system: SNB-19 CNS
SNB-75 CNS = system: SNB-75 CNS
SR leukemia = system: SR leukemia
SW-620 colon = system: SW-620 colon
T-47D breast = system: T-47D breast
TK-10 renal = system: TK-10 renal
U251 CNS = system: U251 CNS
UACC-257 melanoma = system: UACC-257 melanoma
UACC-62 melanoma = system: UACC-62 melanoma
UO-31 renal = system: UO-31 renal
BT-549 breast = system: BT-549 breast
DU-145 prostate = system: DU-145 prostate
HOP-92 NSCLC = system: HOP-92 NSCLC
LOX IMVI melanoma = system: LOX IMVI melanoma
NCI-H522 lung = system: NCI-H522 lung
OVCAR-3 ovarian = system: OVCAR-3 ovarian
OVCAR-5 ovarian = system: OVCAR-5 ovarian
RXF 393 renal = system: RXF 393 renal

## O=C(/C=C/c1cccc(Br)c1)c1cccs1
786-0 renal
  TGI: 31.4 µM
A498 renal
  TGI: 33.2 µM
A549 NSCLC
  TGI: 36.2 µM
ACHN renal
  TGI: 39.8 µM
CAKI-1 renal
  TGI: 32.6 µM
CCRF-CEM leukemia
  TGI: 23.6 µM
COLO 205 colon
  TGI: 46 µM
EKVX NSCLC
  TGI: 37.4 µM
HCC-2998 colon
  TGI: 61.3 µM
HCT-116 colon
  TGI: 18 µM
HCT-15 colon
  TGI: 35.8 µM
HL-60(TB) leukemia
  TGI: 17.7 µM
HOP-62 NSCLC
  TGI: 73.8 µM
HS 578T breast
  TGI: 72.3 µM
HT29 colon
  TGI: 25.3 µM
IGROV1 ovarian
  TGI: 36.6 µM
K-562 leukemia
  TGI: 16.6 µM
KM12 colon
  TGI: 31.6 µM
M14 melanoma
  TGI: 51.1 µM
MALME-3M melanoma
  TGI: 41.6 µM
MCF7 breast
  TGI: 33 µM
MDA-MB-231 breast
  TGI: 38.8 µM
MDA-MB-435
  TGI: 25.5 µM
MDA-N
  TGI: 22.3 µM
MOLT-4 leukemia
  TGI: 53.2 µM
NCI-H226 lung
  TGI: 32.7 µM
NCI-H23 lung
  TGI: 41.6 µM
NCI-H460 lung
  TGI: 31.6 µM
NCI/ADR-RES ovarian
  TGI: 56.9 µM
OVCAR-4 ovarian
  TGI: 31.8 µM
OVCAR-8 ovarian
  TGI: 37.6 µM
PC-3 prostate
  TGI: 31.6 µM
RPMI-8226 leukemia
  TGI: 5.42 µM
SF-268 CNS
  TGI: 42.1 µM
SF-295 CNS
  TGI: 30.2 µM
SF-539 CNS
  TGI: 31.9 µM
SK-MEL-2 melanoma
  TGI: 44.1 µM
SK-MEL-28 melanoma
  TGI: 32.9 µM
SK-MEL-5 melanoma
  TGI: 30.7 µM
SK-OV-3 ovarian
  TGI: 46.8 µM
SN12C renal
  TGI: 31.1 µM
SNB-19 CNS
  TGI: 28.3 µM
SNB-75 CNS
  TGI: 28.2 µM
SR leukemia
  TGI: > 100 µM
SW-620 colon
  TGI: 27.5 µM
T-47D breast
  TGI: 34 µM
TK-10 renal
  TGI: 31.5 µM
U251 CNS
  TGI: 26.8 µM
UACC-257 melanoma
  TGI: 33 µM
UACC-62 melanoma
  TGI: 32.7 µM
UO-31 renal
  TGI: 25.7 µM

## COC(=O)C1=C(C)NC2(O)C=CC(=O)C3C(=O)N(c4ccccc4)C(=O)C132 (stereo not drawn)
786-0 renal
  TGI: > 100 µM
A498 renal
  TGI: > 100 µM
A549 NSCLC
  TGI: > 100 µM
ACHN renal
  TGI: > 100 µM
BT-549 breast
  TGI: > 100 µM
CAKI-1 renal
  TGI: > 100 µM
CCRF-CEM leukemia
  TGI: > 100 µM
COLO 205 colon
  TGI: > 100 µM
DU-145 prostate
  TGI: > 100 µM
EKVX NSCLC
  TGI: > 100 µM
HCC-2998 colon
  TGI: > 100 µM
HCT-116 colon
  TGI: > 100 µM
HCT-15 colon
  TGI: > 100 µM
HL-60(TB) leukemia
  TGI: > 100 µM
HOP-62 NSCLC
  TGI: > 100 µM
HOP-92 NSCLC
  TGI: > 100 µM
HS 578T breast
  TGI: > 100 µM
HT29 colon
  TGI: 70.3 µM
IGROV1 ovarian
  TGI: > 100 µM
K-562 leukemia
  TGI: > 100 µM
KM12 colon
  TGI: > 100 µM
LOX IMVI melanoma
  TGI: > 100 µM
M14 melanoma
  TGI: > 100 µM
MALME-3M melanoma
  TGI: 88 µM
MCF7 breast
  TGI: > 100 µM
MDA-MB-231 breast
  TGI: > 100 µM
MDA-MB-435
  TGI: > 100 µM
MOLT-4 leukemia
  TGI: > 100 µM
NCI-H226 lung
  TGI: > 100 µM
NCI-H23 lung
  TGI: > 100 µM
NCI-H460 lung
  TGI: > 100 µM
NCI-H522 lung
  TGI: > 100 µM
NCI/ADR-RES ovarian
  TGI: > 100 µM
OVCAR-3 ovarian
  TGI: > 100 µM
OVCAR-4 ovarian
  TGI: > 100 µM
OVCAR-5 ovarian
  TGI: > 100 µM
OVCAR-8 ovarian
  TGI: > 100 µM
PC-3 prostate
  TGI: > 100 µM
RPMI-8226 leukemia
  TGI: > 100 µM
RXF 393 renal
  TGI: > 100 µM
SF-268 CNS
  TGI: > 100 µM
SF-295 CNS
  TGI: > 100 µM
SF-539 CNS
  TGI: > 100 µM
SK-MEL-2 melanoma
  TGI: > 100 µM
SK-MEL-28 melanoma
  TGI: 78.7 µM
SK-MEL-5 melanoma
  TGI: > 100 µM
SK-OV-3 ovarian
  TGI: > 100 µM
SN12C renal
  TGI: > 100 µM
SNB-19 CNS
  TGI: > 100 µM
SNB-75 CNS
  TGI: > 100 µM
SR leukemia
  TGI: > 100 µM
SW-620 colon
  TGI: > 100 µM
T-47D breast
  TGI: > 100 µM
TK-10 renal
  TGI: > 100 µM
U251 CNS
  TGI: > 100 µM
UACC-257 melanoma
  TGI: > 100 µM
UACC-62 melanoma
  TGI: > 100 µM
UO-31 renal
  TGI: > 100 µM

## COc1cc2cc(C(=O)N3C[C@@H](CCl)c4c3cc(N)c3ccccc43)[nH]c2c(OC)c1OC
A549 NSCLC
  TGI: > 100 µM
CAKI-1 renal
  TGI: 0.0364 µM
CCRF-CEM leukemia
  TGI: > 100 µM
HCT-116 colon
  TGI: 0.136 µM
HCT-15 colon
  TGI: 1.11 µM
HL-60(TB) leukemia
  TGI: > 100 µM
HOP-92 NSCLC
  TGI: > 100 µM
HS 578T breast
  TGI: > 100 µM
HT29 colon
  TGI: 1.1 µM
IGROV1 ovarian
  TGI: 0.467 µM
K-562 leukemia
  TGI: > 100 µM
KM12 colon
  TGI: 0.0257 µM
MCF7 breast
  TGI: 22 µM
MDA-N
  TGI: 0.00153 µM
MOLT-4 leukemia
  TGI: 1.64 µM
PC-3 prostate
  TGI: 0.108 µM
RPMI-8226 leukemia
  TGI: > 100 µM
SF-268 CNS
  TGI: > 100 µM
SF-295 CNS
  TGI: > 100 µM
SK-MEL-28 melanoma
  TGI: > 100 µM
SK-OV-3 ovarian
  TGI: 1.45 µM
SR leukemia
  TGI: > 100 µM
SW-620 colon
  TGI: > 100 µM
U251 CNS
  TGI: > 100 µM

## CC(C)SC(C)(NC(=O)C1C(C)(C)CCC1(C)C)C(=O)O (stereo not drawn)
786-0 renal
  TGI: > 100 µM
A498 renal
  TGI: > 100 µM
A549 NSCLC
  TGI: > 100 µM
ACHN renal
  TGI: > 100 µM
CCRF-CEM leukemia
  TGI: > 100 µM
COLO 205 colon
  TGI: > 100 µM
DU-145 prostate
  TGI: > 100 µM
EKVX NSCLC
  TGI: > 100 µM
HCC-2998 colon
  TGI: > 100 µM
HCT-116 colon
  TGI: > 100 µM
HCT-15 colon
  TGI: > 100 µM
HL-60(TB) leukemia
  TGI: > 100 µM
HOP-62 NSCLC
  TGI: > 100 µM
HOP-92 NSCLC
  TGI: > 100 µM
HS 578T breast
  TGI: > 100 µM
K-562 leukemia
  TGI: > 100 µM
LOX IMVI melanoma
  TGI: > 100 µM
M14 melanoma
  TGI: > 100 µM
MCF7 breast
  TGI: > 100 µM
MDA-MB-231 breast
  TGI: > 100 µM
MDA-MB-435
  TGI: > 100 µM
MDA-N
  TGI: > 100 µM
MOLT-4 leukemia
  TGI: > 100 µM
NCI-H226 lung
  TGI: > 100 µM
NCI-H23 lung
  TGI: > 100 µM
NCI-H460 lung
  TGI: > 100 µM
NCI/ADR-RES ovarian
  TGI: > 100 µM
OVCAR-5 ovarian
  TGI: > 100 µM
PC-3 prostate
  TGI: > 100 µM
RPMI-8226 leukemia
  TGI: > 100 µM
SF-268 CNS
  TGI: > 100 µM
SF-539 CNS
  TGI: > 100 µM
SK-MEL-2 melanoma
  TGI: > 100 µM
SK-MEL-28 melanoma
  TGI: > 100 µM
SK-MEL-5 melanoma
  TGI: > 100 µM
SK-OV-3 ovarian
  TGI: > 100 µM
SN12C renal
  TGI: > 100 µM
SNB-19 CNS
  TGI: > 100 µM
SNB-75 CNS
  TGI: > 100 µM
SR leukemia
  TGI: > 100 µM
SW-620 colon
  TGI: > 100 µM
T-47D breast
  TGI: > 100 µM
TK-10 renal
  TGI: > 100 µM
U251 CNS
  TGI: > 100 µM
UO-31 renal
  TGI: > 100 µM

From PubChem BioAssay (NCI)
